# Measured values from patent US10723699B2 (Hyundai Pharm Co., Ltd., priority 2015, dated 2020).
# “Also recorded” adds a separate entry of the source.
# Key:
# [1] = test system: diet-induced obesity (DIO) rat model; assay: Changes in weights in diet-induced obesity (DIO) rat model, 4-week administration; format: in vivo, Sprague Dawley (SD) rats; settings: 10, 20, and 50 mg/kg oral, 4 weeks
# Experimental: To simultaneously evaluate both the weight-loss and hypoglycemic effects of the cyclohexene derivative according to the present invention, experiments were carried out, as follows.
# (§1) Specifically, male Sprague Dawley (SD) rats (approximately 4 weeks old) in a diet-induced obesity model were fed with a high-fat diet (Lab. Diet Co.) for approximately 10 weeks to induce high-fat diet-induced obesity (DIO). The rats undergoing the high-fat diet were randomly selected, and divided into groups (n=8) for respective administrations. The compounds of Comparative Examples 3 and 4 and Examples 48 and 119 were administered to the divided DIO rats each group for 4 weeks.
# (§2) The weights of the DIO rats were measured twice a week during a period of administration of 4 weeks to record a change in the weights. At the end of the 4-week period of administration, a hypoglycemic effect was evaluated using an oral glucose tolerance test (OGTT), as follows.
# [2] = test system: diet-induced obesity (DIO) rat model; assay: OGTT at the end of the 4-week administration in DIO rat model; format: in vivo, Sprague Dawley (SD) rats; settings: 50 mg/kg oral; glucose 2 g/kg 30 minutes later; after 4-week administration
# Experimental: as §1, §2
# Specifically, each of the compounds of Comparative Example 3 (300 mg/kg) and Examples 48 and 119 (10, 20, 50 mg/kg) was administered, and 2 g/kg of glucose was orally administered after 30 minutes of the administration. A blood glucose level was determined using an Accu-Chek Active Strip (Roche diagnostic Co.). In this case, the glucose level in blood collected via caudal venipuncture was measured at time points of −30, 0, 20, 40, 60, and 120 minutes after glucose administration. […]
# NCI-H716 cells = assay: Promotion of glucagon-like peptide-1 (GLP-1) secretion (ELISA); format: cell-based, human; settings: 1, 10 and 30 μM-treated groups
# Experimental: To evaluate an effect of the cyclohexene derivative according to the present invention on promotion of glucagon-like peptide-1 (GLP-1) secretion, experiments were carried out, as follows.
# NCI-H716 cells that were human enterocytes were plated on 12 wells at 1×10^6 cells per well. After 48 hours, the cells were starved in serum-free media for 2 hours, and treated with a varying concentration of siptagliptin that was a dipeptidyl peptidase-IV (DPP-IV) inhibitor, and the compounds of Comparative Example 1 (1, 10, 30 μM), Comparative Example 5 (10 μM), Example 48 (1, 10, 30 μM), and Example 291 (1, 10, 30 μM). After an hour, supernatants are recovered to determine an amount of the secreted GLP-1 peptide. The GLP-1 measurement was performed using an enzyme-linked immunosorbant assay (ELISA; Millipore, EGLP-35K), and the amount of the secreted GLP-1 peptide was indicated by the unit “pM”.
structure (smiles),measurement,setting,value
"CC(C)c1noc(N2CCC(COc3ccc(C4=CCC(C(=O)N5CC[C@@H](O)C5)CC4)cc3)CC2)n1 (stereo partly drawn) [Example 48, ((R)-3-hydroxypyrrolidin-1-yl)(4-(4-((1-(3-isopropyl-1,2,4-oxadiazol-5-yl)piperidin-4-yl)methoxy)phenyl)cyclohex-3-enyl)methanone]",changes in weights of rats (weight-loss effect),[1],higher weight-loss effect; also recorded: persistent weight loss was observed for 4 weeks
same,hypoglycemic effect,[2],approximately 25%
same,GLP-1 secretion compared with Comparative Example 1,NCI-H716 cells,higher level than that of Comparative Example 1
